target: T1, human type 1 glycine transporter (GlyT1) (Homo sapiens, UniProt P48067); assay: Glycine uptake inhibition experiment ([3H]glycine uptake); assay type: cell-based; conditions: GlyT1
T1 construct: T98G cells (glioma cells) expressing human type 1 glycine transporter (GlyT1) were used
T1 sequence (P48067 1-706): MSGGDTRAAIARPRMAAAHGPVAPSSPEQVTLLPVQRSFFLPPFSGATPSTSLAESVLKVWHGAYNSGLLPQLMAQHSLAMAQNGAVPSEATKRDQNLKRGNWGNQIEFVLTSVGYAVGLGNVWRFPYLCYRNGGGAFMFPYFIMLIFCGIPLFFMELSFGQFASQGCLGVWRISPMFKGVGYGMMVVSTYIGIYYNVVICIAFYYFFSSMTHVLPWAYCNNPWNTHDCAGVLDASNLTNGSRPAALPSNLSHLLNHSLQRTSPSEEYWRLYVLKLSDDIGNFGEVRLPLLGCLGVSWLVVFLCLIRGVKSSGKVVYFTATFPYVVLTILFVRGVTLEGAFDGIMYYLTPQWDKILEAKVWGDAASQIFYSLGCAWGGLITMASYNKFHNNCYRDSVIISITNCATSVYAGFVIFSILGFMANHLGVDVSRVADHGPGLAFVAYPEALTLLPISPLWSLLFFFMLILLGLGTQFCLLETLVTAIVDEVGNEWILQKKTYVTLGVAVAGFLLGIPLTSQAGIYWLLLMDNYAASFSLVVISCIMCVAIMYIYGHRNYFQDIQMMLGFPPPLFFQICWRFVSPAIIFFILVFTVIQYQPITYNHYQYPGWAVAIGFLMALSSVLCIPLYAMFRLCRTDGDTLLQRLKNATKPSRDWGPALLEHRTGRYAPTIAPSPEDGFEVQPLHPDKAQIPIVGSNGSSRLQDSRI
Procedure, shortened: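 T98G glioma cells expressing human GlyT1 were pretreated 10 min with compound in HEPES buffer pH 7.4 (0.2% BSA), then incubated with compound plus 250 nM final [3H]glycine for 15 min at room temperature. Intracellular radioactivity was counted after NaOH lysis; 10 μM ALX5407 defined non-specific uptake. IC50 came from 10^−9–10^−5 M curves.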

SMILES | IC50 [nM]
O=C(NC(c1cccc(Br)c1)C1(O)CCC(F)(F)CC1)c1nccc(C(F)(F)F)c1Cl (stereo not shown) [Compound 85, N-[(3-bromophenyl)(4,4-difluoro-1-hydroxycyclohexyl)methyl]-3-chloro-4-(trifluoromethyl)pyridine-2-carboxamide] | 320
CCn1cc(-c2cccc(C(NC(=O)c3nccc(C(F)(F)F)c3Cl)C3(O)CCC(F)(F)CC3)c2)cn1 (stereo not shown) [Compound 86, 3-chloro-N-{(4,4-difluroo-1-hydroxycyclohexyl)[3-(1-ethyl-1H-pyrazol-4-yl)phenyl]methyl}-4-(trifluoromethyl)pyridine-2-carboxamide] | 73
CCOc1cccc(C(NC(=O)c2nccc(C(F)(F)F)c2Cl)C2(O)CCCC2)c1 (stereo not shown) [Compound 87, 3-chloro-N-[(3-ethoxyphenyl)(1-hydroxycyclopentyl)methyl]-4-(trifluoromethyl)pyridine-2-carboxamide] | 300
O=C(NC(c1cc(F)cc(Cl)c1)C1(O)CCCC1)c1nccc(C(F)(F)F)c1Cl (stereo not shown) [Compound 88, 3-chloro-N-[(3-chloro-5-fluroophenyl)(1-hydroxycyclopentyl)methyl]-4-(trifluoromethyl)pyridine-2-carboxamide] | 180
O=C(NC(c1ccc(F)c(Cl)c1)C1(O)CCCC1)c1nccc(C(F)(F)F)c1Cl (stereo not shown) [Compound 93, 3-chloro-N-{(3-chloro-4-fluorophenyl)(1-hydroxycyclopentyl)methyl}-4-(trifluoromethyl)pyridine-2-carboxamide] | 430
O=C(NC(c1ccc(F)cc1Cl)C1(O)CCCC1)c1nccc(C(F)(F)F)c1Cl (stereo not shown) [Compound 95, 3-chloro-N-[(2-chloro-4-fluorophenyl)(1-hydroxycyclopentyl)methyl]-4-(trifluoromethyl)pyridine-2-carboxamide] | 130
O=C(NC(c1cccc(Br)c1)C1(O)CCC(F)CC1)c1nccc(C(F)(F)F)c1Cl (stereo not shown) [Compound 96, N-[(3-bromophenyl)(4-fluoro-1-hydroxycyclohexyl)methyl]-3-chloro-4-(trifluoromethyl)pyridine-2-carboxamide] | 250
COC(=O)c1cccc(C(NC(=O)c2nccc(C(F)(F)F)c2Cl)C2(O)CCCC2)c1 (stereo not shown) [Compound 98, methyl 3-[({[3-chloro-4-(trifluoromethyl)pyridin-2-yl]carbonyl}amino)(1-hydroxycyclopentyl)methyl]benzoate] | 590
O=C(N[C@H](c1cccc(Br)c1)[C@]1(O)CC[C@H](F)CC1)c1nccc(C(F)(F)F)c1Cl [Compound 101, N-[(R)-(3-bromophenyl)(trans-4-fluoro-1-hydroxycyclohexyl)methyl]-3-hcloro-4-(trifluoromethyl)pyridine-2-carboxamide] | 1500
O=C(N[C@@H](c1cccc(Br)c1)[C@]1(O)CC[C@H](F)CC1)c1nccc(C(F)(F)F)c1Cl [Compound 102, N-[(S)-(3-bromophenyl)(trans-4-fluoro-1-hydroxycyclohexyl)methyl]-3-chloro-4-(trifluoromethyl)pyridine-2-carboxamide] | 150
O=C(NC(c1ccccc1Cl)C1(O)CCC(F)(F)CC1)c1nccc(C(F)(F)F)c1Cl (stereo not shown) [Compound 103, 3-chloro-N-[(2-chlorophenyl)(4,4-difluoro-1-hydroxycyclohexyl)methyl]-4-(trifluoromethyl)pyridine-2-carboxamide] | 250
O=C(NC(c1cccc(CO)c1)C1(O)CCCC1)c1nccc(C(F)(F)F)c1Cl (stereo not shown) [Compound 104, 3-chloro-N-{(1-hydroxycyclopentyl)[3-(hydroxymethyl)phenyl]methyl}-4-(trifluoromethyl)pyridine-2-carboxamide] | 920
CN(C)C(=O)c1cccc(C(NC(=O)c2nccc(C(F)(F)F)c2Cl)C2(O)CCCC2)c1 (stereo not shown) [Compound 105, 3-chloro-N-{[3-(dimethylcarbamoyl)phenyl](1-hydroxycyclopentyl)methyl}-4-(trifluoromethyl)pyridine-2-carboxamide] | 1600
